Test results taken from patent US7696240B2, “Fused pyrrole derivatives” (Hoffmann-La Roche Inc., priority 2005, dated 2010).

What follows are compounds tested against T1, Chymase purified form human skin mast cells (Homo sapiens, UniProt P23946) (assay: chymase peptide substrate (AAPF-AMC) fluorescence assay). Details: 0.02 mM AAPF-substrate, 0.1 nM Chymase, pH 7.4, room temperature, 30 min pre-incubation.
T1 construct: Chymase purified form human skin mast cells was obtained from Calbiochem; purchased Calbiochem (Merck Biosciences, San Diego, Calif., USA); host or cells: human skin mast cells (natural source)
T1 sequence (P23946 22-247): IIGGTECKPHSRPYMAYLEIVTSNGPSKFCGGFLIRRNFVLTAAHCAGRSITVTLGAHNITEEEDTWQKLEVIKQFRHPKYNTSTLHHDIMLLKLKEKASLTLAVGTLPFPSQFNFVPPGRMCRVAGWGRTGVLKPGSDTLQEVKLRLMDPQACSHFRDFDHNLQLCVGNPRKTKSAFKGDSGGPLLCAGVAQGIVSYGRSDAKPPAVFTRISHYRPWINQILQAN
Type: biochemical
Procedure: The peptide was synthesized with a purity of 95% from Bachem, Bubendorf, Switzerland). Chymase purified form human skin mast cells was obtained from Calbiochem (Merck Biosciences, San Diego, Calif., USA). The assay buffer was 0.15 M NaCl, 0.05M, Tris HCl, 0.05% CHAPS (3-[(3-Cholamidopropyl)-dimethylammonio]-1-propane sulphonate), 0.1 mg/ml Heparin (Heparin sodium, Sigma, porcine intestinal mucosa), 0.02 mM AAPF-substrate, 0.1 nM Chymase at pH 7.4. The assay was performed in 96-well plates (Packard Optiplate), with a 0.05 ml volume at room temperature. Chymase activity was indicated by the initial rate of increase in fluorescence at 340/440 nm (excitation/emission) from free 7-amino-4-methylcoumarin released from the substrate. Inhibition of the activity by inhibitory compounds was read after 30 min pre-incubation with the chymase at room temperature in assay buffer without AAPF-substrate. The assay was then started by addition of the indicated concentration of AAPF-substrate.

IC50	Structure (SMILES)
37 nM	O=C(O)Cc1c(C(=O)O)n(Cc2cccc3ccccc23)c2ccccc12 [Example 5, 3-Carboxymethyl-1-naphthalen-1-ylmethyl-1H-indole-2-carboxylic acid]
38 nM	Cc1ccc(C(=O)NCc2c(C(=O)O)n(Cc3cccc4ccccc34)c3ccccc23)cc1 [Example 10, 3-[(4-Methyl-benzoylamino)-methyl]-1-naphthalen-1-ylmethyl-1H-indole-2-carboxylic acid]
30 nM	O=C(O)c1cc2ccccc2n1Cc1csc2ccc(F)cc12 [Example 55, 1-(5-Fluoro-benzo[b]thiophen-3-ylmethyl)-1H-indole-2-carboxylic acid]
0.8 nM	CS(=O)(=O)NCc1c(C(=O)O)n(Cc2cccc3ccc(F)cc23)c2ccccc12 [Example 105, 1-(7-Fluoro-naphthalen-1-ylmethyl)-3-(methanesulfonylamino-methyl)-1H-indole-2-carboxylic acid]
0.2 nM	COC(=O)N(C)Cc1c(C(=O)O)n(Cc2cccc3ccc(F)cc23)c2ccccc12 [Example 106, 1-(7-Fluoro-naphthalen-1-ylmethyl)-3-[(methoxycarbonyl-methyl-amino)-methyl]-1H-indole-2-carboxylic acid]
1 nM	COC(=O)N(C)Cc1c(C(=O)O)n(Cc2csc3ccc(F)cc23)c2ccccc12 [Example 117, 1-(5-Fluoro-benzo[b]thiophen-3-ylmethyl)-3-[(methoxycarbonyl-methyl-amino)-methyl]-1H-indole-2-carboxylic acid]

Structure (SMILES)	IC50
O=C(O)c1cc2ccccc2n1Cc1cccc2ccc(F)cc12 [Example 49, 1-(7-Fluoro-naphthalen-1-ylmethyl)-1H-indole-2-carboxylic acid]	17 nM
